# Measured values published in PMC7363588, “Mapping of the FGF14:Nav1.6 complex interface reveals FLPK as a functionally active peptide modulating excitability” (Physiological Reports, 2020).
# Values joined by “and” are separate entries in the source; they are usually repeats but may differ in a detail not shown here. Equal entries are not always repeated. “Also recorded” adds a separate entry of the source. Marks after values point to notes of the source that are not given here. Peptide text beside a SMILES is read from it.
# Molecular target: T1, Nav1.6 in the presence of FGF14 (FGF14-1b-GFP) (Homo sapiens, UniProt Q92915)
# T1 construct: expressed in transfected cells
# T1 sequence (Q92915 1-252 isoform Q92915-2): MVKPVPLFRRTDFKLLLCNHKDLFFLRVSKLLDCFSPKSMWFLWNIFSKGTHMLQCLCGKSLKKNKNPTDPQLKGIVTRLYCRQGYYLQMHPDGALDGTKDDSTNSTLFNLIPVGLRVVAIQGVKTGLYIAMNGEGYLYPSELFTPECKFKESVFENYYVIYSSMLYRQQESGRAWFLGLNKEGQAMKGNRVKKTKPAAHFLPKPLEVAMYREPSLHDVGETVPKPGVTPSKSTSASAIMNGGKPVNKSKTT
# Assay: Whole-cell patch-clamp, HEK-Nav1.6 cells expressing FGF14-GFP
# Format: cell-based
# Conditions: 50 μM FLPK
# From the text: Plasmids used in this study derived from the following clones: human FGF14‐1b isoform (accession number: NM_175929.2) and human Nav1.6 (accession number: NM_014191.3). The CLuc‐FGF14, CD4‐Nav1.6‐NLuc, constructs and the pcDNA3.1 vector (Invitrogen, Carlsbad, CA) were engineered and characterized as previously described (Goetz et al., 2009; Shavkunov et al., 2012,2013,2015; Ali et al., 2016, 2018; Wadsworth et al., 2019). The plasmid pGL3 expressing full length Firefly (Photinus pyralis) luciferase was a gift from Dr. P. Sarkar (Department of Neurology, UTMB). For protein purification studies, cDNAs encoding FGF14‐1b (accession number NP_787125; aa 64–252) or the C‐terminal tail of Nav1.6 (accession number #NP_001171455; aa 1756–1939) were subcloned into suitable pET bacterial expression vectors (pET28a‐FGF14; pET30a‐Nav1.6) with a 6X His‐tag at the N‐terminal site; these plasmids were a gift of Dr. Moosa Mohammadi (NYU, Langone Medical Center). The mutation coding for FGF14^V160A was generated by site‐directed mutagenesis and PCR using FGF14‐1b as a template described previously (Ali et al., 2016). For electrophysiological studies FGF14‐GFP (human) and FGF14‐ΔNT‐GFP (human) were cloned into the GFP plasmid (pQBI‐fC2; Quantum Biotechnology Inc., Montreal, Canada) as previously described.
# HEK293 cells were maintained in DMEM and F‐12 (Invitrogen, Carlsbad, CA), supplemented with 0.05% glucose, 0.5 mM pyruvate, 10% fetal bovine serum, 100 units/ml penicillin, and 100 µg/ml streptomycin (Invitrogen), and incubated at 37 °C with 5% CO2. HEK293 cells stably expressing the human Nav1.6 channel (hereafter referred to as HEK‐Nav1.6 cells) were maintained similarly except for the addition of 500 μg/ml G418 (Invitrogen) to maintain stable Nav1.6 expression. Cells were transfected at 80%–90% confluence with equal amount (1 μg each) of plasmid pairs using Lipofectamine 2000 (Invitrogen) according to manufacturer's instructions. HEK‐Nav1.6 cells were washed and replated at very low density prior to electrophysiological recordings (Ali et al., 2016, 2018; Scala et al., 2018; Wadsworth et al., 2019).
# HEK‐Nav1.6 cells transfected with GFP or FGF14‐GFP were plated at low density on glass cover slips for 3–4 hr and subsequently transferred to the recording chamber. Recordings were performed at room temperature (20–22°C) 24 hr posttransfection using a MultiClamp 700B amplifier (Molecular Devices, Sunnyvale, CA). The composition of recording solutions consisted of the following salts; extracellular (mM): 140 NaCl, 3 KCl, 1 MgCl2, 1 CaCl2, 10 HEPES, 10 glucose, pH 7.3; intracellular (mM): 130 CH3O3SCs, 1 EGTA, 10 NaCl, 10 HEPES, pH 7.3. Membrane capacitance and series resistance were estimated by the dial settings on the amplifier and compensated for electronically by 70%–75%. Data were acquired at 20 kHz and filtered at 5 kHz prior to digitization and storage. All experimental parameters were controlled by Clampex 9.2 software (Molecular Devices) and interfaced to the electrophysiological equipment using a Digidata 1,200 analog‐digital interface (Molecular Devices). Voltage‐dependent inward currents for HEK‐Nav1.6 cells were evoked by depolarization to test potentials between −100 mV and +60 mV from a holding potential of −70 mV followed by a voltage prestep pulse of −120 mV (Nav1.6). Steady‐state (fast) inactivation of Nav channels was measured with a paired‐pulse protocol. From the holding potential, cells were stepped to varying test potentials between −120 mV (Nav1.6) and +20 mV (prepulse) prior to a test pulse to −20 mV.
# Current densities were obtained by dividing Na^+ current (INa) amplitude by membrane capacitance. Current–voltage relationships were generated by plotting current density as a function of the […]. Conductance (GNa) was calculated by the following equation: GNa=INa/Vm‐Erev where INa ^+ is the current amplitude at voltage Vm, and Erev is the Na^+ reversal potential. […]
compound,measurement,setting,value
CC(=O)N[C@@H](Cc1ccccc1)C(=O)N[C@@H](CC(C)C)C(=O)N1CCC[C@H]1C(=O)N[C@@H](CCCCN)C(N)=O [FLPK] (Ac-FLPK-NH2),Peak density (I Na),"FGF14-GFP, at −10 mV, mean ± SEM (n = 21), DMSO −16.8 ± 3.3, p < .05 vs FGF14-GFP (DMSO)",−49.6 ± 7.2 pA/pF and −49.6 ± 7.2 (21) ^c pA/pF
same,Kact,"FGF14-GFP, mean ± SEM (n = 11), DMSO 5.7 ± 0.4","5.7 ± 0.5 (11) ^h,i mV"
same,Activation (V1/2),"FGF14-GFP, mean ± SEM (n = 11), DMSO −16.6 ± 1.0",−20.8 ± 1.5 mV and −20.8 ± 1.5 (11) mV
same,Steady-state Inactivation (V1/2),"FGF14-GFP, mean ± SEM (n = 11 in Table 3; n = 14 in text), DMSO −54.9 ± 1.1",−59.2 ± 2.1 (11) mV
same,Kinact,"FGF14-GFP, mean ± SEM (n = 14), DMSO 5.9 ± 0.9",5.9 ± 0.6 (14) mV
same,shift of V1/2 of activation vs DMSO control,"FGF14 wild type, hyperpolarizing direction",−4 mV
same,effect on FGF14-dependent phenotypes of Nav1.6 currents,HEK-Nav1.6 FGF14-GFP,effectively restored I Na to values that were statistically comparable to the GFP + DMSO control; also recorded: inhibited previously reported modulatory effects of FGF14 (1b isoform) on Nav1.6 currents
